The values that follow come from paper PMC5872235 (2018).

Converted amounts (≈) assume the structure as drawn.

Assay [1] concerns S. aureus in control group. The assay is classed as cell-based, Staphylococcus aureus.
The test system of assay [2] is Superantigen negative Staphylococcus aureus (n = 48). As to conditions: Superantigen negative (n = 48, 18 h).
Assay [3] has as its system vancomycin intermediate S. aureus (VISA) isolates. As to conditions: cited from earlier work.
Assay [4] deals with Superantigen positive Staphylococcus aureus (n = 52). As to conditions: Superantigen positive (n = 52, 18 h).
In assay [5] the test system is Staphylococcus aureus strains isolated from atopic dermatitis (AD) patients. As to conditions: strains isolated from atopic dermatitis (AD) patients, 18 h.
Assay [6] has as its system S. aureus in patients with atopic dermatitis. The assay is classed as cell-based, Staphylococcus aureus.
In assay [7] the test system is Staphylococcus aureus strains isolated from control group. The following applies: strains isolated from control group, 18 h.

In the case of `CCCCCCCCCC(=O)N[C@@H](Cc1c[nH]c2ccccc12)C(=O)N[C@H](CC(N)=O)C(=O)N[C@@H](CC(=O)O)C(=O)N[C@@H]1C(=O)NCC(=O)N[C@@H](CCCN)C(=O)N[C@@H](CC(=O)O)C(=O)N[C@H](C)C(=O)N[C@@H](CC(=O)O)C(=O)NCC(=O)N[C@H](CO)C(=O)N[C@@H]([C@H](C)CC(=O)O)C(=O)N[C@@H](CC(=O)c2ccccc2N)C(=O)O[C@@H]1C` [Daptomycin, daptomycin], the “Resistance (%), resistant strains” value stood at 4% in assay [1] and 54.7% in assay [6]. Moreover, the “MIC50” value in assay [2], in assay [4], in assay [5] and in assay [7] was 2 µg/mL (≈ 1.23 µM) throughout. Besides, the “MIC90” value in assay [2] was found to be 4 µg/mL (≈ 2.47 µM); in assay [4], 2 µg/mL (≈ 1.23 µM); in assay [5], 4 µg/mL (≈ 2.47 µM); in assay [7], 2 µg/mL (≈ 1.23 µM). Further, the “MIC Range” value in assay [2] was 0.0625 to 4 µg/mL; in assay [4], 0.125 to 4 µg/mL; in assay [5], 0.125 to 4 µg/mL; in assay [7], 1 to 2 µg/mL. Besides, in assay [3], the MIC was 4 µg/mL (≈ 2.47 µM). In addition, the “minimum inhibitory concentration (MIC)” value in assay [3] is 2 µg/mL (≈ 1.23 µM).
